From PMC11061149, “Protein mimetic 2D FAST rescues alpha synuclein aggregation mediated early and post disease Parkinson’s phenotypes” (Nature Communications, 2024)
Values joined by “and” are separate entries in the source; they are usually repeats but may differ in a detail not shown here. Equal entries are not always repeated. Each block holds one molecule with its values, some of them ahead of it.

Assays:
[1] = molecular target: T1, α-Synuclein (αS) aggregation (Homo sapiens, UniProt P37840); test: Thioflavin T (ThT) dye-based αS aggregation assay (de novo); format: biochemical; conditions: for ThT intensity relative to Synuclein alone (=1), Average / ThT intensity relative to Synuclein alone (=1), Trial 1-3: 100 µM αS, four days, equimolar; for ThT intensity relative to Synuclein alone (=1), Trial 1-3 / Relative ThT intensity of αS aggregation: individual trials; for remaining activity at 100 µM: 96 h, pH 6.5, 100 μM αS, 1×PBS pH 6.5, four days, ligand:αS equimolar, read-out: ThT signal/intensity relative to αS alone (100%); for Relative ThT intensity of αS aggregation, Average / Relative ThT intensity of αS aggregation: Synuclein alone about 1; for ThT intensity (raw), individual trials: αS aggregation after four days, NS132 derivatives equimolar (Fig. 2r)
T1 construct: made in house; host or cells: E. coli BL21(DE3)
Description: We used a 2D FAST approach in OPs to identify potent antagonists of the aggregation of αS. In this approach, we start with a library of monopyridyls with different functional groups. The library of monopyridyls was synthesized using 2-chloro-6-methyl-3-nitropyridine as a common precursor, which was treated with primary alcohols with diverse side chain functionalities via a one-pot reaction (Fig. 1B, a and see Supplementary information for synthetic details). […] We selected the side chains containing hydrophobic, polar, positively charged, and negatively charged functional groups, which mimic the side chains of the amino acids (Fig. 1C). […] The monopyridyl library was screened against the aggregation of 100 μM αS at an equimolar ratio using Thioflavin T (ThT) dye-based aggregation assay (Fig. 1B, b). […] The chloro-dipyridyl was reacted with a library of primary amines/thiols to synthesize a library of dipyridyls (Fig. 1B, e) using a one-pot reaction. […] However, a few dipyridyls required column chromatography to separate them from the starting material side chains because of their very high boiling point (7 out of 21 dipyridyls required column, Supplementary Fig. 1). […]
Aggregation Kinetics were measured according to a previously described protocol. […] The solutions were placed in a ThermoMixer (Eppendorf, Hamberg, Germany) at 37 °C with constant shaking at 1300 rpm (rpm). At different time points, 5 μL aliquots of each αS solution were added to 95 μL PBS containing 50 μM Thioflavin T (ThT) dye in a Costar black 96 well plate (Corning Inc., Kennebunk, ME). ThT fluorescence intensity was measured (λex = 450 nm and λem = 490 nm) on an Infinite M200PRO plate reader (Tecan, Männedorf, Switzerland), and plotted against time to give a sigmoidal curve typical of amyloid aggregation. For the single point ThT aggregation, 100 μM αS, in the absence and presence of ligands, was aggregated under the described conditions and the ThT fluorescence was reported at 96 h. The reported ThT intensity values are the average of each experiment conducted in triplicate, with the error bars representing the standard deviations or standard error of the mean (s.e.m.) as described in the main manuscript.

αS aggregation = molecular target: T2, αS aggregation (Homo sapiens, UniProt P37840); test: SDS-PAGE gel shift assay of soluble and insoluble αS fractions; format: biochemical; conditions: for αS band intensity, Total / Total (αS, SDS-PAGE gel shift), Trial 1-3: individual trials; for Total (αS, SDS-PAGE gel shift), Average: average of 3 trials; for Total (αS, SDS-PAGE gel shift), Average / Total (αS, SDS-PAGE gel shift), Trial 1-3: sheet S9D
T2 construct: made in house; host or cells: E. coli BL21(DE3)
Description: The inhibition of αS aggregation by NS41 was also confirmed by TEM images, which show an abundance (Supplementary Fig. 3a) and low amount (Supplementary Fig. 3b) of αS fibers in the absence and presence of NS41, respectively. We used SDS-PAGE (Sodium dodecyl sulfate polyacrylamide gel electrophoresis) as a complementary assay to validate ThT results and to further characterize the antagonist activity of the monopyridyls against αS aggregation. We used a total of four monopyridyls with varying antagonist activity against αS aggregation for the SDS-PAGE assay. The solutions of αS (±monopyridyls) were centrifuged and the soluble and insoluble fractions were subjected to SDS-PAGE analysis as reported earlier (Fig. 2d, Supplementary Fig. 4a, see details in methods section). The band intensities of the gels in SDS-PAGE assay were quantified using ImageJ software. In the absence of ligands, ~12% of αS was found in the soluble fraction and the rest was found in the insoluble fraction (Fig. 2d, Supplementary Fig. 4a, b). In the presence of NS41 at molar ratios of 1:1 and 2:1 (NS41:αS), 48% and 73% of αS protein were found in the soluble fraction, respectively, and the rest of αS protein was found in the insoluble fraction (Fig. 2d, Supplementary Fig. 4a, b). […] The antagonist activity of the monopyridyls corroborated well from both ThT and the SDS-PAGE assays (Fig. 2a–d, Supplementary Fig. 4a, b). The higher the antagonist activity of monopyridyls against αS aggregation, the lower the ThT intensity and the higher the amount of αS remained in the soluble fraction (Fig. 2a–d, Supplementary Fig. 4a, b). […] It is important to note that NS41 contains a carboxyl (COOH) functional group side chain. […] We have also shown in that work that the foldamer binds to the N-terminus of αS because of its negatively charged COOH functional group interaction with the positively charged lysine residues of αS[24]. […] Additionally, we have also shown that the OPs with the COOH functional group are very effective inhibitors of aggregation of other amyloid proteins that contain lysine amino acid via the formation of salt bridges[30]–[34].
An αS solution (100 µM) was prepared in PBS with or without ligands and shaken ([…], 37 °C) until the fluorescence plateaued, as observed using the ThT aggregation assay, indicative of the aggregation of αS as a control (four days for most experiments unless otherwise mentioned). The solutions were separated into soluble and insoluble fractions by centrifugation at 22,000 × g for 20 min. The fractions were diluted in 2×Laemmli protein sample loading buffer (Containing 2.1% SDS, Bio-rad, Hercules, CA), boiled at 95 °C for 5 min, and ran on a 12% Mini-PROTEAN precast protein gel (Bio-rad, Hercules, CA). The gel was visualized using ChemiDoc MP Imaging System (Bio-rad, Hercules, CA) and band intensity was quantified using Image Lab image acquisition and analysis software (Bio-rad, Hercules, CA). Densitometry values were averaged from three technical replicates and reported with the error bars representing their standard deviations.

Structure (SMILES): Cc1ccc(NC(=O)c2ccc([N+](=O)[O-])c(NCCc3c[nH]c4ccccc34)n2)c(OCC(=O)O)n1 [NS72]
ThT intensity relative to Synuclein alone (=1), Average [1]: 0.08383
ThT intensity relative to Synuclein alone (=1), Trial 1-3 [1]: 0.08532 and 0.05997 and 0.1062

Structure (SMILES): Cc1ccc(NC(=O)c2ccc(NC(=O)c3ccc([N+](=O)[O-])c(Cl)n3)c(NCC3CCCCC3)n2)c(OCC(=O)O)n1 [NS122]
remaining activity at 100 µM [1]: 30%
Relative ThT intensity of αS aggregation, Average ([1]; sheet S7A): 0.339
Relative ThT intensity of αS aggregation ([1]; sheet S7A): 0.3017 and 0.3699 and 0.3455
ThT intensity (raw), individual trials [1]: 5423 and 5518 and 5332
αS band intensity, Total, Average (αS aggregation; sheet S7B): 100
αS band intensity, Total (αS aggregation; sheet S7B): 101.8 and 101.7 and 96.5

Structure (SMILES): Cc1ccc(NC(=O)c2ccc(NC(=O)c3ccc([N+](=O)[O-])c(NCC4CCCCC4)n3)c(NCC3CCCCC3)n2)c(OCC(=O)O)n1 [NS126]
ThT intensity relative to Synuclein alone (=1), Average [1]: 0.4588
ThT intensity relative to Synuclein alone (=1), Trial 1-3 [1]: 0.4925 and 0.4832 and 0.4007
remaining activity at 100 µM [1]: 45.9%

Structure (SMILES): Cc1ccc(NC(=O)c2ccc(NC(=O)c3ccc([N+](=O)[O-])c(NCCc4c[nH]c5ccccc45)n3)c(NCC3CCCCC3)n2)c(OCC(=O)OC(C)(C)C)n1 [NS132-P]
remaining activity at 100 µM [1]: 80%
ThT intensity (raw), individual trials [1]: 15241 and 16712 and 15019
amount of αS in the insoluble fraction (αS aggregation; 100 µM αS, four days, equimolar): 84%
Total (αS, SDS-PAGE gel shift), Average (αS aggregation; NS132-P 0.5 eq.): 0.8767
Total (αS, SDS-PAGE gel shift), Trial 1-3 (αS aggregation; NS132-P 0.5 eq.): 0.83 and 0.85 and 0.95
Total (αS, SDS-PAGE gel shift), Average (αS aggregation; NS132-P 1.0 eq.): 1.02
Total (αS, SDS-PAGE gel shift), Trial 1-3 (αS aggregation; NS132-P 1.0 eq.): 1.069 and 1.01 and 0.98

Structure (SMILES): Cc1ccc(NC(=O)c2ccc([N+](=O)[O-])c(NCCc3ccc(O)cc3)n2)c(OCC(=O)O)n1 [NS160]
ThT intensity relative to Synuclein alone (=1), Average [1]: 0.7268
ThT intensity relative to Synuclein alone (=1), Trial 1-3 [1]: 0.8429 and 0.6915 and 0.6459
Relative ThT intensity of αS aggregation, Average ([1]; sheet S5A): 0.7268
Relative ThT intensity of αS aggregation ([1]; sheet S5A): 0.8429 and 0.6915 and 0.6459
αS band intensity, Total, Average (αS aggregation; sheet S5B): 100
αS band intensity, Total (αS aggregation; sheet S5B): 103.4 and 101 and 95.6

Next, values leading:

ThT intensity relative to Synuclein alone (=1), Average [1]: 0.02443
ThT intensity relative to Synuclein alone (=1), Trial 1-3 [1]: 0.02302 and 0.02387 and 0.02641
remaining activity at 100 µM [1]: 2.7%
Structure (SMILES): Cc1ccc(NC(=O)c2ccc(NC(=O)c3ccc([N+](=O)[O-])c(NCCc4ccc(O)cc4)n3)c(NCC3CCCCC3)n2)c(OCC(=O)O)n1 [NS168]

ThT intensity relative to Synuclein alone (=1), Average [1]: 0.6644
ThT intensity relative to Synuclein alone (=1), Trial 1-3 [1]: 0.6754 and 0.635 and 0.6826
αS band intensity, Total, Average (αS aggregation; sheet S4B): 100
αS band intensity, Total (αS aggregation; sheet S4B): 97.5 and 99 and 103.5
Structure (SMILES): Cc1ccc([N+](=O)[O-])c(OCC2CCCCC2)n1 [RD222]
